The results in this text go back to ChEMBL document CHEMBL1122687, “Sulfur analogues of psychotomimetic agents. 3. Ethyl homologues of mescaline and their monothio analogues” (1984).

For assay [1], the species on record is Homo sapiens. The assay is described as follows: Psychotomimetic potency of compound relative to that of mescaline (Human potency of mescaline = 1 MU). The class given is functional.
Assay [2] is filed under the species Homo sapiens. The assay is described as follows: Psychotomimetic potency of compound relative to that of mescaline(Human potency of mescaline = 1 MU). The class given is functional.

Compound `CCCCSc1c(OC)cc(CCN)cc1OC` returned a Relative activity in the assay listed under Homo sapiens [1] of 3.
Same read-out and setting: to `CCOc1cc(CCN)cc(OC)c1OCC` belongs 1.5; to `CCSc1cc(CCN)cc(OC)c1OC`, 6.
Still for that read-out and setting: to `CCOc1cc(CCN)cc(SC)c1OCC` belongs 2; to `CCOc1c(OC)cc(CCN)cc1SCC`, 2.
The same measure, in the same setting: to `CCOc1cc(CCN)cc(OC)c1SCC` belongs 4; to `CCOc1cc(CCN)cc(OC)c1OC`, 1; to `CCCSc1c(OC)cc(CCN)cc1OC`, 16.
`CCCCOc1c(OC)cc(CCN)cc1OC` showed a Relative activity in the assay listed under Homo sapiens [1] of 2.
On the same count and under the same terms, to `CCOc1cc(CCN)cc(OCC)c1OC` belongs below 1.
In the assay listed under Homo sapiens [1], `CCOc1cc(CCN)cc(OCC)c1SC` registered a Relative activity below 1.
In the assay filed under Homo sapiens [1], `CCOc1cc(CCN)cc(SC)c1OC` registered a Relative activity below 1.
Still for that read-out and setting: as for `CCOc1cc(CCN)cc(SCC)c1OCC`, the figure is below 1.
The compound `CCCOc1cc(CCN)cc(OC)c1OC` displayed a Relative activity in the assay filed under Homo sapiens [1] below 1.
As for `COc1cc(CCN)cc(SC)c1OC`, the Relative activity in the assay listed under Homo sapiens [2] is listed as 6.
In the assay listed under Homo sapiens [1], `COc1cc(CCN)cc(OC)c1SC` gave a Relative activity of 12.
Regarding `CCOc1c(OC)cc(CCN)cc1OC`, the Relative activity in the assay listed under Homo sapiens [1] is on record as 6.
Still for that read-out and setting: to `CCOc1c(OC)cc(CCN)cc1SC` belongs 6.
On the same count and under the same terms, as for `CCSc1c(OC)cc(CCN)cc1OC`, the figure is 20; as for `CCCOc1c(OC)cc(CCN)cc1OC`, 10.
On the same count and under the same terms, as for `CCOc1cc(CCN)cc(OCC)c1SCC`, the figure is below 1; as for `CCOc1cc(CCN)cc(SCC)c1OC`, below 1; as for `CCOc1cc(CCN)cc(OCC)c1OCC`, below 1.
In the assay listed under Homo sapiens [1], `CCOc1cc(CCN)cc(OC)c1SC` showed a Relative activity of 4.
In the assay listed under Homo sapiens [2], `COc1cc(CCN)cc(OC)c1OC` [MESCALINE] showed a Relative activity of 1.
